Patent US20220202712A1, “SELF-EMULSIFYING DRUG DELIVERY SYSTEMS FOR DELIVERY OF LIPOPHILIC COMPOUNDS” (Yissum Research Development Company of the Hebrew …, priority 2019, published 2022)
Where two headings read alike, the source gives them in different places.

Columns and labels:
[1] = sublingual drops, cited from earlier work
[2] = Pharmacokinetic studies for CBD- and THC-loaded SEDDS based on tributyrin; conditions: oral, 0.125 mg THC/2.5 mg CBD (CBD:THC 20:1)
Procedure: The PK studies were carried out on rats. Three animals were used in each time point. At each test point, animals were sacrificed and blood (5-6 ml) withdrawn from the heart and collected in heparinized tubes.
Each rat was orally administered with 1 mil of the test formulation. Blood samples were withdrawn at different time points: 0, 0.5, 1, 2, 4, 6, 10 and 24 hours. The blood samples were centrifuged at 4000 rpm and the plasma was separated and collected in clean polyethylene tubes and kept at −80° C. until analysis using LC-MS/MS.
TB1 liquid SEDDS formulations were tested: 200 parts tributyrin, 350 parts Cremophor RH40, 350 parts PEG400, 350 parts PG.
The HPLC system consisted of a Dionex/Thermo Scientific UltiMate 3000 UHPLC systems fitted with a 100 μL sample loop, Dionex™ UltiMate™ 3000 Rapid Separation Diode Array Detector, and integration software Chromeleon Chromatography Data System (CDS).
Chromatographic separation was performed with guard column Luna® 5 μm C18(2) 100 Å, LC Column 150×4.6 mm, using an isocratic mobile phase of water (0.1% formic acid): acetonitrile (0.1% formic acid) 10:90 at a flow rate of 1 mL/min for 10 in minisocratic condition. The column temperature was 40° C. and the injection volume was 100 μL.
Dual ion electrospray ionization (DUIS) in positive was used for ionization of the analytes on the ISQ™ EC. […]

Compound | Cmax ([1]; CBD dose 10 mg) [ng/mL] | Tmax ([1]; CBD dose 10 mg) [h] | Cmax ([1]; CBD dose 20 mg) [ng/mL] | Tmax ([1]; CBD dose 20 mg) [h] | Tmax ([2]; Table 20, THC, semi-solid SEDDS) [h] | C1/F_obs ([2]; Table 21-2, THC in tributyrin as a carrier (reference)) [mL/min/kg]
C=C(C)[C@@H]1CCC(C)=C[C@H]1c1c(O)cc(CCCCC)cc1O [CBD, cannabidiol] | 2.05 | 2.17 | 2.58 | 1.67 |  | 
CCCCCc1cc(O)c2c(c1)OC(C)(C)[C@@H]1CCC(C)=C[C@@H]21 [THC, tetrahydrocannabinol] |  |  |  |  | 2.00 | 66.835
